Residues, ends and D or L forms follow the SMILES beside them. No end group written: not given here.

A short description of series [1]: Oxidative stability of emulsions by ESR (PBN-lipid spin adducts). Particulars: 5 wt.% fish oil-in-water emulsions; for oxidative stability of emulsion at 20 °C compared to α-10, α-12 and γ-1 (in words): storage at 20 °C; for oxidative stability of emulsion (generation of PBN-lipid spin adducts, in words, Fig. 4): storage 6 days in the dark at both 20 and 37 °C. The method, then: Oxidative stability of emulsions prepared with selected peptides was studied by electron spin resonance (ESR)[31]. ESR analysis was carried out using a benchtop MINISCOPE MS 5000 ESR spectrometer (MAGNETTECH GMBH, Germany). The instrument settings were as follows: magnetic field 320–360 mT, sweep time 60 s, modulation 0.2 mT and frequency 100 kHz. Emulsions were produced as described in section 2.3.1.2 and PBN was added as an ethanol solution (concentration of 50 mg/mL) to have 30 mM of PBN in the oil phase of the emulsion. The oxidative stability of the emulsions was determined during 6 days storage at 20 or 37 °C and samples were measured at days 0, 1 (only for 37 °C), 2, 4 and 6. For each sampling point, emulsion samples (50 μL) were transferred to borosilicate capillary tubes before they were introduced to the cavity of the ESR. Analyses were performed in triplicate at room temperature.

A short description of series [2]: Solubility of peptides in sodium acetate-imidazole buffer. In kind it is physicochemical. Further details: key: Soluble: totally soluble; Cloudy: cloudy: no totally soluble. Conditions: 0.2 wt.% in 10 mM sodium acetate - 10 mM imidazole buffer (pH 7); shaken 2 h at 50 °C and overnight at room temperature; visual. The method, then: (§1) Emulsions were produced as reported in our previous work[31]. A total amount of 2 g of 5 wt.% fish oil-in-water emulsion stabilized with 0.2 wt.% potato peptides was produced. Peptides (0.2 wt.%) were dissolved in 10 mM sodium acetate – 10 mM imidazole buffer (pH 7). For that, the peptide solutions were shaken (100 rpm) for 2 h in water bath at 50 °C and overnight at room temperature to allow complete solubilization and rehydration of the peptides (when possible). Primary homogenization was done by adding the fish oil to the peptide-buffer solution and mixing at 18,000 rpm for 30 s by using a POLYTRON PT1200E (Kinematic Inc., New York, USA). Secondary homogenization was done using a MICROSON XL2000 sonicator equipped with a P1 probe (Misonix, Inc., New York, USA). Emulsions were homogenized at an amplitude of 75% (maximum amplitude of 180 μm), running 2 passes of 30 s with a break of 1 min between passes. During sonication the emulsions were surrounded by iced water to minimize the increase in temperature. […] All emulsions were produced and tested in triplicate.
Among the 38 peptides tested, 14 peptides were not totally soluble resulting in cloudy aqueous phases (e.g. no transparent solutions were obtained and white peptides particles could be observed). […] Differences in pH are due to the acidic impurities present in the synthetic peptides used, and to the insufficient capacity of the buffer employed to keep pH constant at 7. Nonetheless, sodium acetate-imidazole buffer was preferred to phosphate buffer in order to avoid interferences of phosphate buffer in oxidative stability studies as consequence of its chelating activity.

The nature of series [3]: pH of peptide-stabilized emulsions. The series is classed as physicochemical. Particulars: 5 wt.% fish oil-in-water emulsion stabilized with 0.2 wt.% peptide in 10 mM sodium acetate - 10 mM imidazole buffer (pH 7). The protocol:
as §1
Among the 38 peptides tested, 14 peptides were not totally soluble resulting in cloudy aqueous phases (e.g. no transparent solutions were obtained and white peptides particles could be observed). […]

A short description of series [4]: Zeta potential of emulsions. The series is classed as physicochemical. Conditions: 5 wt.% fish oil-in-water emulsion, 0.2 wt.% peptide; after one day of storage; 10 μL emulsion in 5 mL buffer; 25 °C; mean ± SD, triplicate. The method, then:
as §1
The zeta potential of the emulsions was measured after one day of storage in a ZETASIZER NANO ZS (Malvern instruments Ltd., Worcestershire, UK) with a DTS1070 cell at 25 °C[31]. […] The zeta potential range was set to −100 to +50 mV and the samples were analyzed with 100 runs. […]

Series [5] can be described thus: Iron (Fe2+) chelating activity. In kind it is biochemical. Conditions: 0.2 wt.% at pH 7; data not shown. The method, then:
Peptides were dissolved in 10 mM sodium acetate - 10 mM imidazole buffer (pH 7) at 0.2 wt.%. 1 1,1-Diphenyl-2-picrylhydrazyl (DPPH) radical scavenging activity, iron (Fe^2+) chelating activity and ferric (Fe^3+) reducing power were measured as described elsewhere.

A short description of series [6]: Qualitative observation of creaming of emulsions. In kind it is physicochemical. Further details: key: 1: no creaming; 2: creaming; 3: oil layer above the emulsion; 4: phase separation. The method, then:
as §1
(§2) The droplet size distribution of the emulsions was measured by laser diffraction in a MASTERSIZER 2000 (Malvern Instruments, Ltd., Worcestershire, UK) at days 0, 1, 3 and 6 during storage in dark at room temperature (~22 °C)[31]. Each emulsion was diluted in recirculating water (3000 rpm), until it reached an obscuration of 12%. The refractive indices of sunflower oil (1.469) and water (1.330) were used as particle and dispersant, respectively. Results are given in volume mean diameter (D4,3). Measurements were made in triplicate. Due to the low volume of emulsions produced, creaming was determined qualitatively by observing the appearance of the emulsions. Peptides forming emulsions with small droplet sizes and no creaming were selected for further study.

Series [7] is described as follows: Droplet size of emulsions by laser diffraction. The series is classed as physicochemical. Conditions: mean ± SD, triplicate. The method, then:
as §1, §2

Turning to `CC(C)C[C@H](NC(=O)[C@H](CS)NC(=O)[C@H](Cc1ccccc1)NC(=O)[C@H](CCC(N)=O)NC(=O)[C@H](CC(=O)O)NC(=O)[C@H](CC(=O)O)NC(=O)[C@H](CO)NC(=O)[C@H](CO)NC(=O)[C@H](Cc1ccccc1)NC(=O)[C@@H]1CCCN1C(=O)[C@@H](N)CS)C(=O)N[C@@H](CCCCN)C(=O)N[C@H](C(=O)NCC(=O)N[C@H](C(=O)O)C(C)C)C(C)C` [β-22] (H-CPFSSDDQFCLKVGV-OH), in series [1], the “oxidative stability of emulsion at 20 °C compared to α-10, α-12 and γ-1 (in words)” value is listed as “significantly more oxidatively stable”. Moreover, the Solubility of peptides entry in series [2] is on record as “Soluble”.
In the case of `CC[C@H](C)[C@H](NC(=O)[C@@H](NC(=O)[C@@H](NC(=O)CNC(=O)[C@@H](NC(=O)[C@H](CCCCN)NC(=O)[C@H](C)NC(=O)[C@H](CS)NC(=O)[C@H](Cc1ccccc1)NC(=O)[C@H](CC(N)=O)NC(=O)[C@H](CC(=O)O)NC(=O)[C@H](CC(=O)O)NC(=O)[C@H](CCCNC(=N)N)NC(=O)[C@@H](N)CS)C(C)C)C(C)C)C(C)C)C(=O)O` [γ-34] (H-CRDDNFCAKVGVVI-OH), the Solubility of peptides entry in series [2] is “Cloudy”.
With AKDIVPFYFEHGPHIFN [α-14], the Solubility of peptides result in series [2] is reported as “Soluble”.
For the compound DDNFCAKVGVVIQ [β-30], the Solubility of peptides result in series [2] is “Cloudy”.
Still for that read-out and setting: the entry for DNFCAKVGVVIQNGKRR [γ-44] is “Cloudy”.
As for DSPETYEEALKRFAKLLSD [α-12], the “oxidative stability of emulsion (generation of PBN-lipid spin adducts, in words, Fig. 4)” value in series [1] was “lowest oxidative stability”. Further, in series [2], the Solubility of peptides entry was “Soluble”.
Regarding DTNGKELNPNSSYRIISIGRGALGGDVYL [γ-42], in series [2], the Solubility of peptides entry is listed as “Cloudy”.
In the case of EALKRFAKLLSD [α-11], the Solubility of peptides entry in series [2] is recorded as “Soluble”.
As to ELDSRLSYRIISTFWGALGGDVYL [β-21], the Solubility of peptides entry in series [2] was “Cloudy”.
Regarding ELDSRLSYRIISTFWGALGGDVYLGKSPN [β-20], the Solubility of peptides result in series [2] was “Cloudy”.
For FAKLLSDRKKLRANK [γ-46], in series [2], the Solubility of peptides result is “Soluble”.
With FCLKVGVIHQNGKRRLALVK [γ-49], in series [1], the “oxidative stability of emulsion (generation of PBN-lipid spin adducts, in words, Fig. 4)” value is given as “highest oxidative stability”. Moreover, the Solubility of peptides entry in series [2] was “Soluble”.
As to FCLKVGVVHQNGKRRLALVKDNP [γ-38], in series [1], the “oxidative stability of emulsion at 20 °C compared to α-10, α-12 and γ-1 (in words)” value is given as “significantly more oxidatively stable”. In series [2], the Solubility of peptides result is on record as “Soluble”.
Regarding FDVIGGTSTGGLLTAMITTPNENNRP [γ-36], the “oxidative stability of emulsion (generation of PBN-lipid spin adducts, in words, Fig. 4)” value in series [1] is recorded as “highest oxidative stability”. Further, the Solubility of peptides entry in series [2] was “Soluble”.
With FIPLSTNIFEDQLLNIQFNIPT [β-23], the Solubility of peptides entry in series [2] is listed as “Cloudy”.
Still for that read-out and setting: then GIIPATILEFLEGQLQEVDNN [γ-48], with “Soluble”.
Turning to GIKGIIPAIILEFLEGQLQEVDNNKDAR [γ-1], the “oxidative stability of emulsion (generation of PBN-lipid spin adducts, in words, Fig. 4)” value in series [1] is reported as “lowest oxidative stability”. In series [2], the Solubility of peptides result is “Soluble”.
Regarding GKELDPRLSYRI [β-26], in series [2], the Solubility of peptides entry is listed as “Soluble”.
HQNGKRRLALV [γ-39]: the Solubility of peptides entry in series [2] is listed as “Soluble”.
On the same count and under the same terms, the entry for IGSSSHFGPHIFEGELLNIQFDIS [β-29] is “Cloudy”; for ILEFLEGQLQEVDN [α-16] it is “Soluble”; for IPATILEFLEGQLQEVDNN [α-15] it is “Soluble”.
As for KDNPETYEEALKRFAKLLS [γ-41], the Solubility of peptides result in series [2] is on record as “Soluble”.
As to KKPVSKDSPETYEEALKRFAKLLSDRKKL [α-10], in series [1], the “oxidative stability of emulsion (generation of PBN-lipid spin adducts, in words, Fig. 4)” value is “lowest oxidative stability”. Further, the Solubility of peptides result in series [2] was “Soluble”.
With KYDGKYLMQVLQE [α-17], the Solubility of peptides result in series [2] was “Cloudy”.
Take KYLMQVLQEKL [α-19]: in series [2], the Solubility of peptides result is listed as “Soluble”.
Take KYLMQVLQEKLGE [α-18]: the Solubility of peptides result in series [2] is “Cloudy”.
LGGDVYLGKSPNSDAPCP [β-31]: the Solubility of peptides entry in series [2] was “Soluble”.
Same read-out and setting: the entry for LLTAMITTPNENNRP [γ-37] is “Soluble”.
For the compound LNIQFNI [β-24], the Solubility of peptides result in series [2] is “Cloudy”.
Turning to LNIQFNIPTPKLC [β-27], in series [1], the “oxidative stability of emulsion (generation of PBN-lipid spin adducts, in words, Fig. 4)” value is given as “highest oxidative stability”. Also, the Solubility of peptides result in series [2] is recorded as “Cloudy”.
With NPNSSYRIISI [γ-43], in series [2], the Solubility of peptides result was “Soluble”.
On to NRPFAAAKDIVPFYFEHGPHIFN [α-13], for which the Solubility of peptides entry in series [2] is “Soluble”.
Consider RDDNFCAKVGVVI [γ-35], for which the Solubility of peptides result in series [2] is on record as “Cloudy”.
For SSDDQFCLKVGVV [γ-40], in series [1], the “oxidative stability of emulsion (generation of PBN-lipid spin adducts, in words, Fig. 4)” value was “highest oxidative stability”. In addition, the Solubility of peptides entry in series [2] was “Cloudy”.
As to Sodium caseinate, the pH of emulsion in series [3] stood at 6.9. Moreover, the “Zeta potential (mV)” value in series [4] is recorded as −41.5 ± 1.1 mV. The “Fe2+ chelating activity” value in series [5] is reported as 98.5 ± 0.2%. The “Observations Day 0 (creaming)” value in series [6] (appearance of 5 wt.% fish oil-in-water emulsion, 0.2 wt.% peptide, day 0) is reported as 1. Further, the “Observations Day 1 (creaming)” value in series [6] (appearance of emulsion, day 1 of storage at ~22 °C) was 1. The “Observations Day 6 (creaming)” value in series [6] (appearance of emulsion, day 6 of storage at ~22 °C) was 1. In addition, in series [1], the “oxidative stability of emulsion (generation of PBN-lipid spin adducts, in words, Fig. 4)” value was “highest oxidative stability”. The Solubility of peptides entry in series [2] is reported as “Soluble”. For the same compound, the “D4,3 (μm) Day 1” value in series [7] (as Day 0, day 1 of storage in dark at room temperature (~22 °C)) is 1.1 ± 0.2 μm. For the same compound, the “D4,3 (μm) Day 3” value in series [7] (as Day 0, day 3 of storage in dark at room temperature (~22 °C)) is recorded as 0.9 ± 0.2 μm. In addition, the “D4,3 (μm) Day 6” value in series [7] (as Day 0, day 6 of storage in dark at room temperature (~22 °C)) is reported as 1.0 ± 0.2 μm. Also, the “D4,3 (μm) Day 0” value in series [7] (volume mean diameter, 5 wt.% fish oil-in-water emulsion, 0.2 wt.% peptide, pH 7 buffer, laser diffraction, day 0) was 1.1 ± 0.2 μm.
As for TPNENNRPFAAAKDIV [γ-47], the Solubility of peptides entry in series [2] was “Soluble”.
Regarding VGVVIQNGKRR [γ-45], the Solubility of peptides result in series [2] was “Soluble”.
In the case of VHQNGKRRLALVKDNPLDVSFK [β-28], the Solubility of peptides result in series [2] is listed as “Soluble”.
